Article PMC5387716, “Discovery of monocarbonyl curcumin-BTP hybrids as STAT3 inhibitors for drug-sensitive and drug-resistant breast cancer therapy” (Scientific Reports, 2017)

How the values were obtained:
MCF-7 cells [1] = test: MTT anti-proliferative assay, MCF-7; type: cell-based, human; conditions: Homo sapiens, MCF7, 48 h, read-out: MCF-7 IC50 ± SD
Protocol: (§1) All cell lines were purchased from Cell Bank of Shanghai Institute of Biochemistry and Cell Biology, Chinese Academy of Sciences (Shanghai, China). Human breast carcinoma cells (MCF-7 and MCF-7/DOX), breast epithelial cells (MCF-10A) and normal human liver cells (LO2) were maintained in RPMI-1640 medium. All cells were supplemented with 12% fetal bovine serum containing 50 μg/ml penicillin and 50 μg/ml streptomycin. Cells were grown to 80% confluency in a tissue culture flask at 37 °C in a humidified atmosphere containing 5% CO2, and then were trypsinized with 1 × Trypsin-Versene and split. The MCF-7/DOX cell line we used was established from its parental cell line MCF-7 cell by gradually increasing the concentration of DOX to which the cells were exposed in a stepwise manner over a period of 8 months. […] The cells were incubated in drug-free medium for at least 1 week before use.
(§2) Cells (MCF-7, MCF-7/DOX, MCF-10A, LO2) were seeded in 96-well plates at a density of 3,000–6,000 cells per well. The cells were incubated overnight (16 h) in a humidified 5% CO2 incubator at 37 °C. After media removal, different concentrations of test compounds were added in triplicate to the plates in 200 μL of fresh media and were incubated with the cells at 37 °C for 48 h. […] Cell viability was evaluated using 3-(4, 5-dimethylthiazolyl)-2,5-diphenyltetrazoliumbromide (MTT). The absorbance was read by an ELISA reader (SpectraMax Plus384, Molecular Devices, Sunnyvale, CA) at a test wavelength of 570 nm and a reference wavelength of 630 nm. Cell viability was calculated using the following formula: […]

MCF-7/DOX cells [2] = test: MTT anti-proliferative assay, MCF-7/DOX; type: cell-based, human; conditions: Homo sapiens, MCF7-DOX; MTT, 48 h; read-out: MCF-7/DOX IC50 ± SD
Protocol: as §1, §2

LO2 cells = test: MTT anti-proliferative assay, LO2; type: cell-based; conditions: normal human liver cells, Table 2 prints no unit, μM
Protocol: as §1, §2

STAT3 = test: Western blot of STAT3 phosphorylation; type: cell-based, human; conditions: MCF-7 and MCF-7/DOX cells
Protocol: (§3) MCF-7 or MCF-7/DOX cells were incubated with various concentrations of 6b for 24 h. After trypsinization, cells were treated with 1× RIPA lysis buffer (50 mM Tris–HCl, pH 7.4, 150 mM NaCl, 0.25% deoxycholic acid, 1% NP-40, 1 mM EDTA and protease inhibitors) (Amresco, Solon, USA) to extract the total proteins. An aliquot of proteins from the total cell lysates (30 to 60 μg/lane) was separated by sodium dodecyl sulfate (10%) polyacrylamide gel electrophoresis (SDS–PAGE, Bio-Rad Laboratories, Hercules, CA), wet-transferred to NC membrane (Bio-Rad Laboratories, Hercules, CA) and blotted with primary antibodies specific for STAT3, p-STAT3, p-Jak2, Jak2, p-Src, Src, Erk, P-Erk, PARP, cleaved PARP, Bcl-2, Bax, Cyclin D1, P-gp and GAPDH. Bound immuno-complexes were detected using ChemiDOC™ XRS + system (Bio-Rad Laboratories, Hercules, CA).

Bcl-2 = test: Western blot of Bcl-2; type: cell-based, human; conditions: MCF-7 and MCF-7/DOX cells, 24 h
Protocol: as §3

Cyclin D1 = test: Western blot of Cyclin D1; type: cell-based, human; conditions: MCF-7 and MCF-7/DOX cells, 24 h
Protocol: as §3

[3] = tested on: PARP, Caspase 9 and Caspase 3; test: Western blot of cleaved PARP, Caspase 9 and Caspase 3; type: cell-based, human
MCF-7 cells [4] = test: Annexin V-APC/7-AAD flow cytometry of apoptosis, MCF-7; type: cell-based, human; conditions: 24 h
Protocol: (§4) MCF-7, MCF-7/DOX or MCF-10A cells, at a density of 2.5 × 10^5 cells per well, were cultured in regular growth medium in 6-well plates for 24 h and treated in duplicate with different concentrations of 6b or curcumin for 24 h. The cells were harvested, washed and stained with 5 μL of Annexin V-APC and 5 μL of 7-AAD at room temperature for 15 min. Cells were then analyzed by flow cytometry (488 nm excitation and 600 nm emission filters) using a BD FACSCalibur flow cytometer (Becton & Dickinson Company, Franklin Lakes, NJ).

MCF-10A cells = test: Annexin V-APC/7-AAD flow cytometry of apoptosis, MCF-10A; type: cell-based, human; conditions: concentrations up to 4 μM
Protocol: as §4

MCF-7/DOX cells [5] = test: Colony survival assay, MCF-7/DOX; type: cell-based, human; conditions: 24 h treatment, 14 d culture
Protocol: MCF-7 or MCF-7/DOX cells were cultured a 6-well plate at a density of 800–1,000 cells/well with regular growth medium. Cells were treated for 24 h with the vehicle and 6b at 0.15–1 μM on the following day. Cells were allowed to grow for 10–14 d until colonies were visible. Crystal violet solution (Sigma, St. Louis, MO, USA) was used to stain the colonies for 4 hours and colonies were imaged.

MCF-7 cells [6] = test: Flow cytometry of the cell cycle, MCF-7; type: cell-based, human; conditions: MCF-7, 24 h
Protocol: (§5) MCF-7 or MCF-7/DOX cells were plated in 6-well culture plates (1.5 × 10^5 cells per well). After incubation overnight, various concentrations of 6b or curcumin were added and cells were incubated for 24 h. Cells were harvested, washed with cold PBS, and incubated with pre-cooled 70% ethanol for a minimum of 4 h at 4 °C to fix them. The cells were then centrifuged, carefully aspirated from the supernatant, and re-suspended in a propidium iodide (final concentration, 40 μg/ml) and RNase A (final concentration, 100 μg/ml) solution at a final cell density of 0.5 × 10^6 cells/ml. The suspension was incubated at 37 °C for 30 min prior to analysis by flow cytometry.

MCF-7/DOX cells [7] = test: Flow cytometry of the cell cycle, MCF-7/DOX; type: cell-based, human; conditions: 24 h
Protocol: as §5

STAT1 = test: IFN-γ induced STAT1 phosphorylation (western blot); type: cell-based, human; conditions: MCF-7, 0.5–4 μM, 6 h, IFN-γ 50 ng/mL 30 min; compared with effect on IL-6-induced p-STAT3
Src = test: Western blot of p-Src; type: cell-based, human; conditions: MCF-7 and MCF-7/DOX cells, 24 h
Protocol: as §3

Erk1/2 = test: Western blot of p-Erk1/2; type: cell-based, human; conditions: MCF-7 and MCF-7/DOX cells, 24 h
Protocol: as §3

COc1ccc(/C=C/C(=O)N2CCN(C(=O)C3=Cc4cc(Br)ccc4S3(=O)=O)CC2)cc1 [Compound 6b, (E)-1-(4-(5-bromo-1,1-dioxidobenzo[b]thiophene-2-carbonyl)piperazin-1-yl)-3-(4-methoxyphenyl)prop-2-en-1-one]
IC50 (MCF-7 cells [1]): 0.52 ± 0.16 µM | IC50 (MCF-7/DOX cells [2]): 0.4 ± 0.01 µM | IC50 (LO2 cells; 48 h): 8.31 ± 0.41 µM | IC50 (LO2 cells; Homo sapiens, L02, 48 h): 8.3 µM | p-STAT3 level (STAT3; 1.0 μM): significantly inhibited | STAT3 phosphorylation at the Ser727 residue (STAT3; 24 h): little effect | STAT3 phosphorylation at the pTyr705 residue (STAT3; 24 h): dose-dependent inhibition | total STAT3 protein level (STAT3; 24 h): little effect | expression of Bcl-2 (protein) (Bcl-2): inhibited | expression of Cyclin D1 (protein) (Cyclin D1): inhibited | cleavage of PARP, Caspase 9 and Caspase 3 ([3]; MCF-7 and MCF-7/DOX cells): induced the cleavage | cleaved PARP ([3]; MCF-10A cells, concentrations up to 4 μM): little | apoptosis rate (MCF-7 cells [4]; 1 μM): 15.7% | apoptosis rate (MCF-7 cells [4]; 2 μM): 37.9% | apoptosis rate (MCF-7 cells [4]; 4 μM): 67.2% | apoptosis (MCF-10A cells): little | clonogenic ability / colony formation (MCF-7/DOX cells [5]; 0.25 μM): significant reduction in clonogenic ability | clonogenic ability / colony formation (MCF-7/DOX cells [5]; 0.5 μM): almost a cessation of colony formation | cells in the Sub-G1 phase (MCF-7 cells [6]): significant increase | percentage of cells in S phase (MCF-7 cells [6]): increased | cells in the Sub-G1 phase (MCF-7/DOX cells [7]): significant increase | percentage of cells in the G0/G1 phase (MCF-7/DOX cells [7]): increased | IFN-γ-induced STAT1 phosphorylation (STAT1): less of an effect | p-Src expression (Src): little effect | p-Erk1/2 expression (Erk1/2): little effect
